According to ChEMBL document CHEMBL5653631, “A Potent and Selective ULK1 Inhibitor Suppresses Autophagy and Sensitizes Cancer Cells to Nutrient Stress” (iScience, 2018):

How the values were obtained:
[1] = molecular target: Proto-oncogene tyrosine-protein kinase receptor Ret (Homo sapiens) (UniProt P07949); test: Inhibition of human recombinant RET at 15 nM in presence of ATP by radiometric assay relative to control
[2] = molecular target: T1, Calcium/calmodulin-dependent protein kinase type IV (Homo sapiens) (UniProt Q16566); test: Inhibition of human recombinant CaMK4 at 15 nM in presence of ATP by radiometric assay relative to control
T1 sequence (whole entry): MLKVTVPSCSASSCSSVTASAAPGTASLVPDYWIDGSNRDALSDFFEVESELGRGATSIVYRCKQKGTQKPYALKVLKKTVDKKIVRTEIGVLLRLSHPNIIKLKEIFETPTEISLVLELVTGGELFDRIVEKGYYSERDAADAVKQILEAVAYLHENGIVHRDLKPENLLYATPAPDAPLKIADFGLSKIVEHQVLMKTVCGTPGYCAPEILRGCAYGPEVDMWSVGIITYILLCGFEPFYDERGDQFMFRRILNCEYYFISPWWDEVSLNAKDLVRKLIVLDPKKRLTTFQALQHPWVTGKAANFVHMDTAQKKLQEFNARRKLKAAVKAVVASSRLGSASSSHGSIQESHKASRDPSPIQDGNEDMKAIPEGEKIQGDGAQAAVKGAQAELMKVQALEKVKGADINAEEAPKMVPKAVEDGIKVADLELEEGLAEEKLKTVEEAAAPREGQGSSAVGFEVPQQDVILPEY

[3] = molecular target: T2, Tyrosine-protein kinase ITK/TSK (Homo sapiens) (UniProt Q08881); test: Inhibition of human recombinant ITK at 15 nM in presence of ATP by radiometric assay relative to control
T2 sequence (whole entry): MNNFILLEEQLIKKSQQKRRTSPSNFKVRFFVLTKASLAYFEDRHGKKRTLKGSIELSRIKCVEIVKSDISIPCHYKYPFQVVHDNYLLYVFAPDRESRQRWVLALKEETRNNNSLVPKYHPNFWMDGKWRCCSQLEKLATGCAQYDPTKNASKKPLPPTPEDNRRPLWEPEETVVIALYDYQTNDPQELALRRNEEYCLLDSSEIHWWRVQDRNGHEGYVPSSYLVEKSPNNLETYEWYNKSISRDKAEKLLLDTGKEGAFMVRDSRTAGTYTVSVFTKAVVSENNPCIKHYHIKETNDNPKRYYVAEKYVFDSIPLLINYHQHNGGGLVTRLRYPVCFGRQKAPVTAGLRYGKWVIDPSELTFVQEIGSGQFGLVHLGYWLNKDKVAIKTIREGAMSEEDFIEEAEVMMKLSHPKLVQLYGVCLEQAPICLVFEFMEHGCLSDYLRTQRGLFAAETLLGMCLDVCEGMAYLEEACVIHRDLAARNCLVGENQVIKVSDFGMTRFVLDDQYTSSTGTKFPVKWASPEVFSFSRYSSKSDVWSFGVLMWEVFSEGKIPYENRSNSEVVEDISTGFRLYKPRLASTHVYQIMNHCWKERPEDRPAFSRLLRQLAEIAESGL

[4] = molecular target: Serine/threonine-protein kinase Nek4 (Homo sapiens) (UniProt P51957); test: Inhibition of human recombinant NEK4 at 40 nM related to control ULK1
Sequence of Serine/threonine-protein kinase Nek4 (Homo sapiens) (P51957 whole entry, looked up): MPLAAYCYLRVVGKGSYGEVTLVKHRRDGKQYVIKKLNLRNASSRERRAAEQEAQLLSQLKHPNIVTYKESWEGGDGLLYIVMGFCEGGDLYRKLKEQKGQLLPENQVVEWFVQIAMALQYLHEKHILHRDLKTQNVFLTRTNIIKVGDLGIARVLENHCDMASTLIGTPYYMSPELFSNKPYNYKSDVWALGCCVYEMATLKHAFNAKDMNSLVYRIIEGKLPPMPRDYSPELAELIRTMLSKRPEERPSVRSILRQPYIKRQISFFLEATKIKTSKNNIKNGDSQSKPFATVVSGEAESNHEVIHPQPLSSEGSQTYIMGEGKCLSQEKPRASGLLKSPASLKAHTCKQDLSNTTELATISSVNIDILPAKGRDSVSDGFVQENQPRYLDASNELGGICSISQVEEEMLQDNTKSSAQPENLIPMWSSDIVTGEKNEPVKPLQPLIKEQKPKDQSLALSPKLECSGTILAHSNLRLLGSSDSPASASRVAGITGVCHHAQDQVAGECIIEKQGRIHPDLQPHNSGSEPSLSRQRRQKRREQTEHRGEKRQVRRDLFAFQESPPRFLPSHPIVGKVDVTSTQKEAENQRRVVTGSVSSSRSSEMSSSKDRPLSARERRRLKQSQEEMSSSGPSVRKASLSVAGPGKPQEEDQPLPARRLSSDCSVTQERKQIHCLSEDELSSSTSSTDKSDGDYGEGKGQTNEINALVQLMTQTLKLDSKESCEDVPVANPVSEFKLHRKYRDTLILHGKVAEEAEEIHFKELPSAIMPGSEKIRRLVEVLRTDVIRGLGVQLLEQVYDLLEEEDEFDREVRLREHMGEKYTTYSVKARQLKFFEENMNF

[5] = molecular target: T3, Mitogen-activated protein kinase kinase kinase kinase 2 (Homo sapiens) (UniProt Q12851); test: Inhibition of human recombinant GCK at 40 nM in presence of ATP by radiometric assay relative to control
T3 sequence (whole entry): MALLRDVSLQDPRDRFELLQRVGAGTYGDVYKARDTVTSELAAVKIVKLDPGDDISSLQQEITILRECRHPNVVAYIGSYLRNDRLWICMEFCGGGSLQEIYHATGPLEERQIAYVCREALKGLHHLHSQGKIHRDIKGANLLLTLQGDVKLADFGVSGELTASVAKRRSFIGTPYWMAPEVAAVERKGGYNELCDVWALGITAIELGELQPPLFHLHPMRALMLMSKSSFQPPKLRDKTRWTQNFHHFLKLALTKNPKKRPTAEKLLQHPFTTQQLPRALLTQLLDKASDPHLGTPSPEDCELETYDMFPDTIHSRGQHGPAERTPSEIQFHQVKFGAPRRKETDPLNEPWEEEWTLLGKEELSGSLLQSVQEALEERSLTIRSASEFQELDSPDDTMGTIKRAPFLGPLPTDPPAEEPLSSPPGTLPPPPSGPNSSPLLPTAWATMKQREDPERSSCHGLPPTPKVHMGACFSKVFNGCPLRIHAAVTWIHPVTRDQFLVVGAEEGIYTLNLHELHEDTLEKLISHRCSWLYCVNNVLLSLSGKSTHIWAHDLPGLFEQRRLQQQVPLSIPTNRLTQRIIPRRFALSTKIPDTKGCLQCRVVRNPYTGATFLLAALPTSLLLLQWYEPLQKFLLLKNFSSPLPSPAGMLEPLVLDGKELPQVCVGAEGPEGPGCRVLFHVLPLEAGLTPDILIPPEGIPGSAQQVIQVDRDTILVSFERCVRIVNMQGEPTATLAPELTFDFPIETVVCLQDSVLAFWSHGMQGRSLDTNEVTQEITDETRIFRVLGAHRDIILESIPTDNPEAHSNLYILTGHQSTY

[6] = molecular target: Wee1-like protein kinase (Homo sapiens) (UniProt P30291); test: Inhibition of human recombinant Wee1 at 40 nM related to control ULK1
Sequence of Wee1-like protein kinase (Homo sapiens) (P30291 whole entry, looked up): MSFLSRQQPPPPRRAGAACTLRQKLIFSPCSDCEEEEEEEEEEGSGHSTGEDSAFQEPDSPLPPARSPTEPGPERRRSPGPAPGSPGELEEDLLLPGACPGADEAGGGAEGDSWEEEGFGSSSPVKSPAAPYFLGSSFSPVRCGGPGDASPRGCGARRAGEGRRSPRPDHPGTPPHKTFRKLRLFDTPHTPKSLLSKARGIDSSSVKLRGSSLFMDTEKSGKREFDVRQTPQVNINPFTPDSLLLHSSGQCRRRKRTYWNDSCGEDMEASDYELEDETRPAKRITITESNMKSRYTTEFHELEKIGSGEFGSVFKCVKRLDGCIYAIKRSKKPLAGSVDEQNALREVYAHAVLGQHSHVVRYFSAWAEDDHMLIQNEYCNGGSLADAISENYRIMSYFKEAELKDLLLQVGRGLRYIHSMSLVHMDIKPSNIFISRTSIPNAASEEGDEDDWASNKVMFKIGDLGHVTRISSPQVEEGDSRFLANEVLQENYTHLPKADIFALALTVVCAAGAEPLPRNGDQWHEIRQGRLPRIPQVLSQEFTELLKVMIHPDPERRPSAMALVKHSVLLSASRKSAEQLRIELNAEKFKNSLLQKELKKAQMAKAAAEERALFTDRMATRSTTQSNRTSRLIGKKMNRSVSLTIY

[7] = molecular target: Proto-oncogene tyrosine-protein kinase Src (Homo sapiens) (UniProt P12931); test: Inhibition of human recombinant SRC at 40 nM related to control ULK1
Sequence of Proto-oncogene tyrosine-protein kinase Src (Homo sapiens) (P12931 2-536 limits assumed): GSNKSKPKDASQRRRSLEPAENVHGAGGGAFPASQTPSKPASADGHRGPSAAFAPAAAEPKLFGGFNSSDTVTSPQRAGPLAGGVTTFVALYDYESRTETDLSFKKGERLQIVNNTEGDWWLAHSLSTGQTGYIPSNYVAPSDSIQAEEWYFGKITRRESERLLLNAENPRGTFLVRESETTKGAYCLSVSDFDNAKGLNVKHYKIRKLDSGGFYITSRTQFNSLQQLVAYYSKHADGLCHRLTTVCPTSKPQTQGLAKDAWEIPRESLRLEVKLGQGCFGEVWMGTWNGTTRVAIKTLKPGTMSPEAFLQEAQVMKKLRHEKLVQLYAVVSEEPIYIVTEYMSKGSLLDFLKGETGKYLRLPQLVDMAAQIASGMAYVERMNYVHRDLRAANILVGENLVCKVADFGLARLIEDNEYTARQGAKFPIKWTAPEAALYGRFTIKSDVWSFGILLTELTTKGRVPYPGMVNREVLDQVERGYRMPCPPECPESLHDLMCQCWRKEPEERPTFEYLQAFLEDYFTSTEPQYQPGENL

[8] = molecular target: T4, Serine/threonine-protein kinase ICK (Homo sapiens) (UniProt Q9UPZ9); test: Inhibition of human recombinant ICK at 40 nM in presence of ATP by radiometric assay relative to control
T4 sequence (whole entry): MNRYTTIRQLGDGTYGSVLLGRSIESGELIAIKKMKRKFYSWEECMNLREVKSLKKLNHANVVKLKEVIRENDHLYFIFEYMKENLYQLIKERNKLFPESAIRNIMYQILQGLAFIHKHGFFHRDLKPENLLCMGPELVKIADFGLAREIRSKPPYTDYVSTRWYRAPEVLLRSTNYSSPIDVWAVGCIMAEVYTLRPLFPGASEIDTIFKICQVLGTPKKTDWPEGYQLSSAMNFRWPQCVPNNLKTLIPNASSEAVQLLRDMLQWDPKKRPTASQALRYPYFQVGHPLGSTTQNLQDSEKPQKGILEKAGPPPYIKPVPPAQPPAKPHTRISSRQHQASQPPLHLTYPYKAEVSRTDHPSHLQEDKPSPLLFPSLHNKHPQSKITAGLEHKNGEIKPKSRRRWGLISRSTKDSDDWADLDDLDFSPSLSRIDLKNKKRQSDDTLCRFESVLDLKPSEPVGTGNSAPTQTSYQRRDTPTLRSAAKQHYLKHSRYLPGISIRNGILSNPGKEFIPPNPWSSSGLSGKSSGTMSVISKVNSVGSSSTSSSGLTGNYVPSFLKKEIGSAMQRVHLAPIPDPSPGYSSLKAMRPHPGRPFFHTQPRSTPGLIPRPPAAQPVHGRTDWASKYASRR

Sequence of Proto-oncogene tyrosine-protein kinase receptor Ret (Homo sapiens) (P07949 whole entry): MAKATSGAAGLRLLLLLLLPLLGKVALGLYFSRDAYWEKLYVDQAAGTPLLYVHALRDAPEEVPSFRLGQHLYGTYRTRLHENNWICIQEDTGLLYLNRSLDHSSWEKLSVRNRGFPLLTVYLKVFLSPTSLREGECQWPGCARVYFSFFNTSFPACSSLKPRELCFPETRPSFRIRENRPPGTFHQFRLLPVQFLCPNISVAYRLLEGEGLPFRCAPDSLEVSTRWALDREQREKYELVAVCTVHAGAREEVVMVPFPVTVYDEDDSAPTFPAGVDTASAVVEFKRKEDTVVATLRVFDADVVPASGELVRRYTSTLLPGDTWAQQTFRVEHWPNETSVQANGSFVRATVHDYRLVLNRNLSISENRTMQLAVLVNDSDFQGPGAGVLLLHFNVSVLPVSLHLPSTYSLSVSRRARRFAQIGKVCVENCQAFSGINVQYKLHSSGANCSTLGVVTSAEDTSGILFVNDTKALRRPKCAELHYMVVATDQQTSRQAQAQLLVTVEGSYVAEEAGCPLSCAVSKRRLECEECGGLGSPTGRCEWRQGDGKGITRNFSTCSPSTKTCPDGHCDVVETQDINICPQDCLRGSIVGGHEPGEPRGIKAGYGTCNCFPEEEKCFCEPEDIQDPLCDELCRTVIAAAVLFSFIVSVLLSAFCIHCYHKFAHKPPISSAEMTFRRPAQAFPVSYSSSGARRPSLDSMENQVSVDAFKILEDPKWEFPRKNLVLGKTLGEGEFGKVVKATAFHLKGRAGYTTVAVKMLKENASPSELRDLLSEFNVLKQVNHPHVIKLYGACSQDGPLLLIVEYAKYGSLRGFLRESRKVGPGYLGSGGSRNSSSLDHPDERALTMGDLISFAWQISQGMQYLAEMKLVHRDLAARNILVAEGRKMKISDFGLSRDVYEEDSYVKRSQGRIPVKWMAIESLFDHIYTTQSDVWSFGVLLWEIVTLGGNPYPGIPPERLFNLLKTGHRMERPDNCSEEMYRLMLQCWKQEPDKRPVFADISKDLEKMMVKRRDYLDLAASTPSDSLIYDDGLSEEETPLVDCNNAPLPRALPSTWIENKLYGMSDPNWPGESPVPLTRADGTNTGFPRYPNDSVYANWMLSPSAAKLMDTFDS

| SMILES | inhibition [1] | inhibition [2] | inhibition [3] | fold change (FC) [4] | inhibition [5] | fold change (FC) [6] | fold change (FC) [7] | inhibition [8] |
| --- | --- | --- | --- | --- | --- | --- | --- | --- |
| CC(C)[C@H](NC(=O)c1cc(-c2cnn3cc(-c4ccc(OCCN5CCCCC5)cc4)cnc23)cs1)C(F)(F)F | 14% | 0% | 4% | – | – | – | – | – |
| O=C(N[C@@H](C1CC1)C(F)(F)F)c1cc(-c2cnn3cc(-c4ccc(F)cc4)cnc23)cs1 | – | – | – | 0.05 | 0% | 0.01 | 0.03 | 0% |
